Data from ChEMBL document CHEMBL6071135, “New resorcylic acid derivatives of Lysimachia tengyuehensis against MRSA and VRE by interfering with bacterial metabolic imbalance” (Eur J Med Chem, 2024).
≈ marks a conversion by molar mass, not a printed value. Calls of active or inactive are those of the source. The rule behind the calls is not given here.

How the values were obtained:
[1] = test system: Staphylococcus aureus; assay: Antibacterial activity against methicillin-resistant Staphylococcus aureus measured after 24 hrs by CLSI based broth microdilution method; assay type: functional
[2] = test system: Enterococcus faecalis; assay: Bactericidal activity against vancomycin-resistant Enterococcus faecalis ATCC51299 measured after 24 hrs by CLSI based broth microdilution method; assay type: functional
[3] = test system: Staphylococcus aureus; assay: Bactericidal activity against methicillin-resistant Staphylococcus aureus measured after 24 hrs by CLSI based broth microdilution method; assay type: functional
[4] = test system: Enterococcus faecalis; assay: Antibacterial activity against vancomycin-resistant Enterococcus faecalis ATCC51299 measured after 24 hrs by CLSI based broth microdilution method; assay type: functional
[5] = test system: Staphylococcus aureus; assay: Antibacterial activity against methicillin resistant Staphylococcus aureus infected in female Kunming mouse model of skin infection assessed as reduction in inflammatory cell infiltration at 8 mg/kg administered daily pre-infected for 4 hrs followed by compound administration for 7 days; assay type: functional, organism-based; conditions: time 7.0 day
[6] = test system: Staphylococcus aureus; assay: Bactericidal activity against methicillin-resistant Staphylococcus aureus assessed as reduction in number of bacteria at 2 times MIC measured within 1 hr by time-kill assay; assay type: functional, organism-based
[7] = Toxicity in Kunming mouse assessed as morphological abnormalities at 8 mg/kg administered daily and measured after 7 days; assay type: organism-based; conditions: in vivo, 168 h, time 7 day
[8] = test system: Staphylococcus aureus; assay: Antibacterial activity against methicillin resistant Staphylococcus aureus infected in female Kunming mouse model of skin infection assessed as suppression of purulent secretion at 8 mg/kg administered daily pre-infected for 4 hrs followed by compound administration for 7 days; assay type: functional, organism-based; conditions: time 7.0 day
[9] = test system: Staphylococcus aureus; assay: Antibacterial activity against methicillin resistant Staphylococcus aureus infected in female Kunming mouse model of skin infection assessed as reduction in wound size at 8 mg/kg administered daily pre-infected for 4 hrs followed by compound administration for 7 days; assay type: functional, organism-based; conditions: time 7.0 day
[10] = test system: Staphylococcus aureus; assay: Antibacterial activity against methicillin resistant Staphylococcus aureus infected in female Kunming mouse model of skin infection assessed as increase in neovascularization at 8 mg/kg administered daily pre-infected for 4 hrs followed by compound administration for 7 days; assay type: functional, organism-based; conditions: time 7.0 day
[11] = test system: Staphylococcus aureus; assay: Antibacterial activity against methicillin resistant Staphylococcus aureus infected in female Kunming mouse model of skin infection assessed as reduction in bacterial load of wound at 8 mg/kg administered daily pre-infected for 4 hrs followed by compound administration for 7 days; assay type: functional, organism-based; conditions: time 7.0 day
[12] = test system: Enterococcus faecalis; assay: Bactericidal activity against vancomycin-resistant Enterococcus faecalis ATCC51299 assessed as reduction in number of bacteria at 2 times MIC measured within 1 hr by time-kill assay; assay type: functional, organism-based
[13] = test system: Enterococcus faecalis; assay: Drug resistance, ratio of MIC for vancomycin-resistant Enterococcus faecalis ATCC51299 after 20 days exposure to MIC for vancomycin-resistant Enterococcus faecalis ATCC51299 during first exposure; assay type: functional; conditions: time 20 day

Structure (SMILES)	MIC [1]	MBC [2]	MBC [3]	MIC [4]	also measured
COc1cccc(OC)c1C(=O)N[C@@H]1C(=O)N2[C@@H]1SC(C)(C)[C@@H]2C(=O)O [METHICILLIN]	> 128 µg/mL	–	–	–	–
CCCCCCCCCCCCc1cc(O)cc(O)c1C(=O)O	8 µg/mL (≈ 24.8 µM)	4 µg/mL (≈ 12.4 µM)	8 µg/mL (≈ 24.8 µM)	4 µg/mL (≈ 12.4 µM)	–
CCCCCCCCCCCc1cc(O)cc(O)c1C(=O)O	8 µg/mL (≈ 25.9 µM)	8 µg/mL (≈ 25.9 µM)	8 µg/mL (≈ 25.9 µM)	8 µg/mL (≈ 25.9 µM)	–
CCCCCCCCCCCCCCc1cc(O)cc(O)c1C(=O)O	4 µg/mL (≈ 11.4 µM)	8 µg/mL (≈ 22.8 µM)	4 µg/mL (≈ 11.4 µM)	4 µg/mL (≈ 11.4 µM)	–
CCCCCCCCCCCCc1cc(O)cc(O)c1	8 µg/mL (≈ 28.7 µM)	4 µg/mL (≈ 14.4 µM)	8 µg/mL (≈ 28.7 µM)	4 µg/mL (≈ 14.4 µM)	–
CCCCCCCCCCCCCc1cc(O)cc(O)c1	4 µg/mL (≈ 13.7 µM)	4 µg/mL (≈ 13.7 µM)	4 µg/mL (≈ 13.7 µM)	4 µg/mL (≈ 13.7 µM)	–
CN[C@H](CC(C)C)C(=O)N[C@H]1C(=O)N[C@@H](CC(N)=O)C(=O)N[C@H]2C(=O)N[C@H]3C(=O)N[C@H](C(=O)N[C@H](C(=O)O)c4cc(O)cc(O)c4-c4cc3ccc4O)[C@H](O)c3ccc(c(Cl)c3)Oc3cc2cc(c3O[C@@H]2O[C@H](CO)[C@@H](O)[C@H](O)[C@H]2O[C@H]2C[C@](C)(N)[C@H](O)[C@H](C)O2)Oc2ccc(cc2Cl)[C@H]1O [VANCOMYCIN]	–	–	–	–	Activity [5]: Active; Activity [6]: inactive; Activity [7]: Non-Toxic; Activity [8]: Active; Activity [9]: Active; Activity [10]: Active; Activity [11]: Active
CC1(C)S[C@@H]2[C@H](NC(=O)[C@H](N)c3ccccc3)C(=O)N2[C@H]1C(=O)O [AMPICILLIN]	–	–	–	2 µg/mL (≈ 5.72 µM)	Activity [12]: inactive; fold change (FC) [13]: 4
CCCCCCCCCCCCCc1cc(O)cc(O)c1C(=O)O	4 µg/mL (≈ 11.9 µM)	8 µg/mL (≈ 23.8 µM)	4 µg/mL (≈ 11.9 µM)	8 µg/mL (≈ 23.8 µM)	–
